Results published in ChEMBL document CHEMBL1156311, “Discovery of sulfonamide-pyrazole gamma-secretase inhibitors” (Bioorg Med Chem Lett, 2010).

Experiment: Drug level in FVB mouse cerebral cortex at 100 mg/kg, po after 3 hrs
Assay type: ADME, organism-based
Parameters: dose 100 mg/kg, route oral
Details: read-out: Drug uptake
Work on `O=S(=O)(c1ccc(Cl)cc1)N1C2CCCC1c1cn[nH]c1C2` (single isomer, unassigned; (+)) yielded a concentration at 3 h of 86 nM.

Experiment: Drug level in FVB mouse plasma at 100 mg/kg, po after 3 hrs
Assay type: ADME, organism-based
Parameters: dose 100 mg/kg, route oral
Details: not given
`O=S(=O)(c1ccc(Cl)cc1)N1C2CCCC1c1cn[nH]c1C2` (single isomer, unassigned; (+)) gave a concentration at 3 h of 194 nM.

Experiment: Inhibition of gamma-secretase
Details: not given
`O=S(=O)(c1ccc(Cl)cc1)N1C2CCCC1c1cncnc1C2` (stereo not drawn) showed an IC50 of 4700 nM.
`O=S(=O)(c1ccc(Cl)cc1)N1C2CCCC1c1cnoc1C2` (stereo not drawn) gave an IC50 of 3500 nM.
Compound `O=S(=O)(c1ccc(Cl)cc1)N1[C@@H]2CCC[C@H]1C[C@@H](O)C2` (stereo in doubt; 8a) has an IC50 of 3000 nM.
Compound `O=C1c2[nH]ncc2C2CCCC1N2S(=O)(=O)c1ccc(Cl)cc1` (stereo not drawn) has an IC50 of 8 nM.
Compound `CSc1n[nH]c2c1C1CCCC(C2)N1S(=O)(=O)c1ccc(Cl)cc1` (stereo not drawn) has an IC50 of 390 nM.
In the case of `CN1CCCC[C@@H](N(Cc2ccc(Br)cc2)S(=O)(=O)c2ccc(Cl)cc2)C1=O`, the IC50 is reported as 1700 nM.
With `Cc1ccc(S(=O)(=O)C(=O)NC2CC3CCCC(C2)N3S(=O)(=O)c2ccc(Cl)cc2)cc1` (racemic) the IC50 was 8000 nM.
For `CN(C)c1n[nH]c2c1C1CCCC(C2)N1S(=O)(=O)c1ccc(Cl)cc1` (stereo not drawn), the IC50 was > 10000 nM.
For `Cn1ncc2c1CC1CCCC2N1S(=O)(=O)c1ccc(Cl)cc1` (stereo not drawn), the IC50 was > 10000 nM.
`Nc1ncc2c(n1)CC1CCCC2N1S(=O)(=O)c1ccc(Cl)cc1` (stereo not drawn) gave an IC50 of 5500 nM.
In the case of `O=S(=O)(c1ccc(Cl)cc1)N1C2CCCC1c1cnc(O)nc1C2` (stereo not drawn), the IC50 is reported as > 10000 nM.
For `N[C@H]1C[C@H]2CCC[C@@H](C1)N2S(=O)(=O)c1ccc(Cl)cc1`, the IC50 was > 10000 nM.
Work on `O=S(=O)(c1ccc(Cl)cc1)N1C2CCCC1CC(=NO)C2` (racemic) yielded an IC50 of 3300 nM.
For `O=S(=O)(c1ccc(Cl)cc1)N1C2CCCC1C(F)(F)c1[nH]ncc12` (stereo not drawn), the IC50 was 3 nM.
`Cc1n[nH]c2c1C1CCCC(C2)N1S(=O)(=O)c1ccc(Cl)cc1` (stereo not drawn) gave an IC50 of 65 nM.
In the case of `O=S(=O)(c1ccc(Cl)cc1)N1C2CCCC1CCC2`, the IC50 is reported as 1300 nM.
In the case of `CNC1CC2CCCC(C1)N2S(=O)(=O)c1ccc(Cl)cc1` (racemic), the IC50 is reported as > 10000 nM.
`Nc1n[nH]c2c1C1CCCC(C2)N1S(=O)(=O)c1ccc(Cl)cc1` (stereo not drawn) showed an IC50 of 105 nM.
Work on `O=C1NCCCC[C@H]1N(Cc1ccc(Br)cc1)S(=O)(=O)c1ccc(Cl)cc1` yielded an IC50 of 25 nM.
With `C[C@@H]1CCC[C@H](C)N1S(=O)(=O)c1ccc(Cl)cc1` the IC50 was 1700 nM.
`CC(=O)Nc1n[nH]c2c1C1CCCC(C2)N1S(=O)(=O)c1ccc(Cl)cc1` (stereo not drawn) gave an IC50 of 70 nM.
With `O=S(=O)(c1ccc(Cl)cc1)N1C2CCCC1c1c(C(F)F)n[nH]c1C2` (stereo not drawn) the IC50 was 85 nM.
Compound `O=S(=O)(c1ccc(Cl)cc1)N1C2CCCC1c1c(C(F)(F)F)n[nH]c1C2` (stereo not drawn) has an IC50 of 70 nM.
For `CSc1ncc2c(n1)CC1CCCC2N1S(=O)(=O)c1ccc(Cl)cc1` (stereo not drawn), the IC50 was > 10000 nM.
Work on `COc1ncc2c(n1)CC1CCCC2N1S(=O)(=O)c1ccc(Cl)cc1` (stereo not drawn) yielded an IC50 of 9000 nM.
With `Cn1cc2c(n1)CC1CCCC2N1S(=O)(=O)c1ccc(Cl)cc1` (stereo not drawn) the IC50 was > 10000 nM.
For `CC(=O)NC1CC2CCCC(C1)N2S(=O)(=O)c1ccc(Cl)cc1` (racemic), the IC50 was > 10000 nM.
For `COc1cc(CN([C@@H]2CCCCNC2=O)S(=O)(=O)c2ccc(Cl)cc2)ccc1OCCc1scnc1C`, the IC50 was 650 nM.
With `Nc1nc2c(s1)C1CCCC(C2)N1S(=O)(=O)c1ccc(Cl)cc1` (stereo not drawn) the IC50 was > 10000 nM.
Work on `O=S(=O)(c1ccc(Cl)cc1)N1[C@@H]2CCC[C@H]1C[C@@H](O)C2` (stereo in doubt; 8b) yielded an IC50 of 600 nM.
In the case of `O=S(=O)(c1ccc(Cl)cc1)N1C2CCCC1c1cn[nH]c1C2` (stereo not drawn), the IC50 is reported as 4 nM.
